Series [1] concerns K562/CD19 target cells. The experiment in a line: Bioluminescence-based cytolytic activity of CD8+ CD19 CAR T cells. The format is cell-based, human. As to conditions: TMP 1000 nM. As for the experimental part:
(5C) Specific cytolytic activity of CD8+ CD19 CAR-T cells against K562/CD19 target cells. Cytolytic activity of CD8+ CD19-CAR T cells was evaluated by co-culture with K562/CD19 or K562 target cells using a bioluminescence-based assay. The assay was setup with effector T cells (CD8+ CD19-CAR T cells) at various effector/target (E:T) ratios in 96 well flat bottom plates. Luminescence intensities were recorded at specific time points (1, 3, 5, 24 hours) using a luminometer. Specific lysis was calculated using the standard formula. Data shown are from one representative experiment.
(5D) Specific cytolytic activity of CD8+ CD19 CAR-T cells engineered with dd-SB100X fusion transposase vs. wild type SB100X transposase. […] Data was analyzed by unpaired t-test.
Anonymous healthy donor blood samples were received upon written consent to participate in research protocols approved by the Institutional Review Board of the Universitätsklinikum Würzburg (UKW). Blood samples were processed for T cells isolation as published earlier (Querques et al., 2019). Briefly, Peripheral blood mononuclear cells (PBMCs) were isolated by density centrifugation with Biocoll separating solution (Biochrom). Both CD4+ and CD8+ T cells were sorted by negative isolation approach using microbeads and magnetic associated cell sorting (MACS, Miltenyi) methods as described by the manufacturer. […]

Series [2] relates to human CD4+ T cells. The series can be described thus: Gene transfer (EGFRt+ T cells, flow cytometry) with degron-SB100X in CD4+ T cells. Format: cell-based. As to conditions: for gene transfer rate (EGFRt+ T cells): day 7 post-nucleofection, n=1. How it is done: (1E) Testing the activity of IKZF3 zinc finger-based degron-SB100X fusion-transposase in human CD4+ T cells. For each condition, 2 million CD3/CD28 activated CD4+ T cells were nucleofected with minicircle DNA encoding a CD19-CAR_EGFRt SB transposon, and plasmid DNA encoding either the wild type SB transposase (SB100X) or the SB fusion-transposase (degron-SB100X). Cells were cultured either in the presence of Pomalidomide (P; 10 μM) or DMSO (D) at the time of nucleofection. At 7 days post-nucleofection, flow cytometric analysis was performed to determine the percentage of T cells that expresses the EGFRt reporter that was encoded in cis with the CD19-CAR. Top panel: Dot plots showing EGFRt expression on day 7 post-nucleofection. Bottom panel: Bar graph showing the percentage of EGFRt+ T cells on day 7 post-nucleofection (n=1).
Anonymous healthy donor blood samples were received upon written consent to participate in research protocols approved by the Institutional Review Board of the Universitätsklinikum Würzburg (UKW). Blood samples were processed for T cells isolation as published earlier (Querques et al., 2019). Briefly, Peripheral blood mononuclear cells (PBMCs) were isolated by density centrifugation with Biocoll separating solution (Biochrom). Both CD4+ and CD8+ T cells were sorted by negative isolation approach using microbeads and magnetic associated cell sorting (MACS, Miltenyi) methods as described by the manufacturer. The isolated CD4+ and CD8+ T cells were cultured in T cell medium (RPMI-1640 with 10% (vol/vol) human serum, 2 mM L-glutamine, 100 U ml-1 penicillin-streptomycin) containing IL-2 (50 units per mL) and activated by anti-CD3/CD28 bead stimulation (Thermo Fisher). Two days post-activation, approximately 2 million T cells were nucleofected with vectors (1 μg of CD19 CAR (EGFRt)-encoding transposon as plasmid or minicircle DNA; 1 μg of mRNA encoding SB transposase) or 10 μg of hsSB protein (Querques et al., 2019) using a 4D Nucleofector (Lonza) as per the manufacturer's instructions. […]
Background: A flow cytometer gives signals particle by particle.

Take `COc1cc(Cc2cnc(N)nc2N)cc(OC)c1OC` [TMP, trimethoprim]: the “effect of TMP treatment on subsequent function of CAR T cells” value in series [1] is recorded as “no adverse effects”.

Regarding `Nc1cccc2c1C(=O)N(C1CCC(=O)NC1=O)C2=O` (stereo not shown) [pomalidomide, reference compound], in series [2] (pomalidomide 10 μM vs DMSO), the “effect of pomalidomide on activity of wild type SB100X (lacking the degron tag)” value is “interfered with the activity of wild type SB100X”. “degron-SB100X: IKZF3 zinc finger degron tag fused via linker to N-terminus of SB100X transposase; SEQ ID NO: 3”: the “gene transfer rate (EGFRt+ T cells)” value in series [2] (DMSO) is given as about 46.4%; in series [2] (pomalidomide 10 μM), about 1.74%.

(Values after US20250361284A1, “TRANSPOSASE FUSION PROTEINS FOR USE IN CELL AND GENE THERAPY” (JULIUS-MAXIMILIANS-UNIVERSITÄT WÜRZBURG, priority 2022, published 2025).)
